Test results taken from ChEMBL document CHEMBL1157539, “Thousands of chemical starting points for antimalarial lead identification” (Nature, 2010).

system: Plasmodium falciparum; test: GSK_TCMDC: Inhibition of Plasmodium falciparum 3D7 in whole erythrocytes, using parasite LDH activity as an index of growth.; format: functional, organism-based; settings: Plasmodium falciparum, 3D7

Point of comparison: `NC1CCN(Cc2cccc(-c3ccc(-c4nc5ccccc5[nH]4)s3)c2)C1` (stereo not drawn), XC50 727 nM. Against it:
- COc1cccc(Nc2nc(C)cc(NC3CCCC3)n2)c1 — 1.5-fold higher, 1110 nM
- CCOC(=O)c1ccc(NC(=O)N[C@@H](Cc2ccc(O)cc2)C(=O)NC2CCN(Cc3ccc4c(c3)OCO4)CC2)cc1 — within 1.5-fold, 1060 nM
- COc1cc(C(C)C)nc2ccc(NC(=O)c3ccc(C(=O)Nc4ccc5nc(C(C)C)cc(OC)c5c4)cc3)cc12 — within 1.5-fold, 579 nM
- O=C(Nc1cccc(Cl)c1)OC1CCCN2CCCCC12 (stereo not drawn) — within 1.5-fold, 1020 nM
- CN1CCN(c2ccc(-c3cccc(NC(=O)c4ccc5ccccc5c4)c3)nn2)CC1 — 1.9-fold lower, 383 nM
- Cc1cc(NCCC(=O)NCCOc2ccccc2)nc(NCCc2ccc(F)cc2)n1 — within 1.5-fold, 940 nM
- Cc1cccc2nc(-c3cccc(-c4ccc(CNCc5cnn(-c6ccccc6)n5)cc4)c3)[nH]c12 — within 1.5-fold, 921 nM
- CCn1c(Sc2ccc([N+](=O)[O-])c(C#N)c2)nnc1-c1ccc(Cl)cc1 — within 1.5-fold, 1000 nM
- Cc1cccc2c(C3CCN(CC4CCC(NC(=O)/C=C/c5ccc(Cl)c(Cl)c5)CC4)CC3)c[nH]c12 (stereo not drawn) — within 1.5-fold, 1030 nM
- Cc1cc(C(=O)NCc2ccc(-c3c(C)noc3C)cc2)n(-c2ccccc2)n1 — within 1.5-fold, 825 nM
- CC1CN(S(=O)(=O)c2ccc(NC(=O)c3cc(-c4ccccc4O)n[nH]3)cc2)CC(C)O1 (stereo not drawn) — within 1.5-fold, 832 nM
- CC1(C)NC(N)=NC(=N)N1OCCSCCON1C(=N)N=C(N)NC1(C)C — 14-fold lower, 50.6 nM
- Cc1cccc2nc(-c3ccc(-c4cccc(NC(=O)Nc5ccc(F)c(F)c5F)c4)cc3)[nH]c12 — 2.2-fold lower, 338 nM
- CN(C)Cc1cccc(-c2ccc(NC(=O)c3ccc4c(=O)n(Cc5ccoc5)cnc4c3)cc2)c1 — within 1.5-fold, 770 nM
- Cc1[nH]c2ccccc2c1CC1CCN(CC2CCN(C(=O)/C=C/c3ccc(Cl)c(Cl)c3)CC2)CC1 — within 1.5-fold, 950 nM
- CC(=O)C=C1CC(=O)N(C[C@@H](O)[C@H]2O[C@@H]3OC(C)(C)O[C@@H]3[C@H]2O)c2ccccc2N1 — 1.7-fold higher, 1260 nM
- O=C(Nc1cccc(CN2CCCN(Cc3ccc(O)cc3)CC2)c1)c1cc(F)cc(F)c1 — within 1.5-fold, 658 nM
- CC(C)C[C@H](NC(=O)c1cc2ccccc2s1)C(=O)N[C@H]1CCN(Cc2ccc(OCCN3CCNCC3)c3ccccc23)C1 — 2-fold higher, 1420 nM
- CC1Cc2ccccc2N1CC(=O)Nc1cc(C(F)(F)F)ccc1-n1cncn1 (stereo not drawn) — 2.3-fold lower, 321 nM
- COc1ccc2ccc(F)c(CC(=O)N3CCOC(CNCc4cccc(-c5ccsc5)n4)C3)c2n1 (stereo not drawn) — 1.6-fold higher, 1170 nM
- O=C(Nc1ccc(Cl)cc1)Nc1cccc(-c2ccc(-c3nc4ccccc4[nH]3)cc2)c1 — within 1.5-fold, 928 nM
- c1ccc(CN2CCC(NCc3ccccc3-c3ccc(CNC4CCCC4)cc3)CC2)cc1 — within 1.5-fold, 912 nM
- Cc1cc(CN2CC[C@H](NC(=O)c3ccc(Cl)c(Cl)c3)C2)ccc1OC1CCN(Cc2ccccc2)CC1 — within 1.5-fold, 906 nM
- COc1ccc(Nc2nccc(NCC(O)c3cccc(C(F)(F)F)c3)n2)cc1 (stereo not drawn) — within 1.5-fold, 886 nM
- CC(=O)Nc1nc(N)c2c(ccc3c2ccn3CC(C)C)n1 — 10-fold lower, 69.6 nM
- CCCNC(=O)C1Cc2c([nH]c3cc(Br)ccc23)C2(CCN(CCc3ccccc3)CC2)N1 (stereo not drawn) — within 1.5-fold, 972 nM
- CN(CCN)Cc1cccc(-c2cccc(-c3nc4cc(C(F)(F)F)ccc4[nH]3)c2)c1 — within 1.5-fold, 509 nM
- CN(C)CCC1CCN(CCS(=O)(=O)c2cccc(Nc3ncc(-c4cccc(F)c4)cn3)c2)CC1 — within 1.5-fold, 1060 nM
- COc1ccc(C2(CNCC(O)c3cccc([N+](=O)[O-])c3)CCCCC2)cc1OC (stereo not drawn) — within 1.5-fold, 957 nM
- O=C(/C=C/c1ccc(C(F)(F)F)cc1)NCCCCCN1CCCN(C(=O)Nc2ccc(F)c(Cl)c2)CC1 — 2-fold lower, 368 nM
- Cc1ccccc1C1CCN(C2CCC(NC(=O)/C=C/c3ccccc3C(F)(F)F)CC2)CC1 (stereo not drawn) — 1.9-fold higher, 1410 nM
- Cc1ccccc1C1CCN(C2CCC(NC(=O)c3cncc(-c4ccccc4)c3)CC2)CC1 (stereo not drawn) — within 1.5-fold, 930 nM
- Cc1cccc2nc(-c3ccc(-c4ccc(NC(=O)NCc5cccc(F)c5)cc4)cc3)[nH]c12 — 1.8-fold higher, 1300 nM
- Cc1ccc(CC(C)NCC(O)c2cccc(Br)c2)cc1 (stereo not drawn) — within 1.5-fold, 802 nM
- Cc1ccc(F)cc1S(=O)(=O)Nc1ccc(CCN2CCC(N3CCCCC3)CC2)cc1 — within 1.5-fold, 719 nM
- c1ccc(COc2ccccc2COc2ccccc2-c2ccc3cccnc3n2)cc1 — within 1.5-fold, 921 nM
- CCCC/C=C(\Cl)c1ccc(O)c2c1C[C@H]1C[C@H]3[C@H](N(C)C)C(O)=C(C(N)=O)C(=O)[C@@]3(O)C(O)=C1C2=O — within 1.5-fold, 1090 nM
- O=C(Nc1ccc(Cl)cc1)c1cccc(S(=O)(=O)NC2CCN(CC3CCCCC3)CC2)c1 — within 1.5-fold, 722 nM
- Cc1ccc(C)c(CN2CCC(CNC(=O)c3cc4ccc5cccnc5c4[nH]3)CC2)c1 — within 1.5-fold, 993 nM
- CC1CC(NCCCNc2cc(=O)c3ccccc3[nH]2)c2cc(Cl)c(Cl)c(Cl)c21 (stereo not drawn) — within 1.5-fold, 724 nM
- c1cc(CN2CCCCC2)cc(-c2csc(-c3nc4ccccc4[nH]3)c2)c1 — within 1.5-fold, 848 nM
- CN1CCN(Cc2cc3cc(NC(=O)/C=C/c4cccc(Cl)c4)ccc3s2)CC1 — 2.7-fold lower, 273 nM
- CC(=NNC(N)=O)C1=C(O)C(c2ccccc2)N(C2CCCCC2)C1=O (stereo not drawn) — 22-fold lower, 33 nM
- CN1CCN(c2cc3c(Nc4ccc5c(cnn5Cc5ccccc5)c4)ncnc3cn2)CC1 — 1.6-fold higher, 1130 nM
- O=C(Nc1ccc(Br)cc1)N1CCC(n2c(-c3ccccc3)nc3cccnc32)CC1 — within 1.5-fold, 763 nM
- O=C(/C=C/c1ccc(Cl)c(Cl)c1)NCCCCCN1CCC(NC(=O)Nc2cccc(Cl)c2Cl)CC1 — within 1.5-fold, 667 nM
- c1cc(CN2CCc3ccccc3CC2)cc(-c2c[nH]c3nc(NC4CCCC4)ncc23)c1 — within 1.5-fold, 800 nM
- CC(C)CC(NC(=O)c1ccc(F)cc1)C(=O)N[C@H](/C=N/N1CCNC1=O)CC(C)C (stereo partly drawn) — within 1.5-fold, 1030 nM
- c1ccc(CN2CCC(NCc3cccc(-c4cncc5ccccc45)c3)CC2)cc1 — 1.9-fold higher, 1360 nM
- CCSc1ccccc1CON1C(=N)N=C(N)NC1(C)C — 230-fold lower, 3.2 nM
- CC1(C)N=C(N)N=C(N)N1c1ccc(Oc2ccccc2)cc1 — 2.1-fold lower, 341 nM
- O=C(NC1CC1)c1ccc(Nc2nccc(-c3c(-c4cccc(NC(=O)c5c(F)cccc5F)c4)nn4ccccc34)n2)cc1 — 1.8-fold lower, 411 nM
- O=C(NC1CCCc2ccccc21)[C@@H]1CCCN1C(=O)c1ccc(O)c(-c2ccc(Cl)c(Cl)c2)c1 (stereo partly drawn) — 3.5-fold lower, 209 nM
- CN(C)Cc1ccc(CN2CCN(CCOc3ccc(-c4ccc(Cl)cc4)cc3)CC2)o1 — within 1.5-fold, 1020 nM
- CC(O)C(C)(CO)NCc1ccc2c3c(cccc13)-c1ccccc1-2 (stereo not drawn) — within 1.5-fold, 818 nM
- O=C(/C=C/c1ccc(Cl)c(Cl)c1)NC1C2CCC1CC(CN1CCC(c3c[nH]c4ccccc34)CC1)C2 (stereo not drawn) — 3.6-fold lower, 203 nM
- CC(C)CCN1CCCN(Cc2ccc(C(=O)Nc3ccc(F)c(F)c3)cc2)CC1 — within 1.5-fold, 944 nM
- CCCN(CCC)C(=O)c1cc(C(=O)N[C@@H](Cc2ccccc2)[C@H](O)CNCc2cccc(OC)c2)cc(N2CCCCS2(=O)=O)c1 — within 1.5-fold, 549 nM
- N#Cc1ccc(CN2CCC(Oc3ccc(NC(=O)c4cccs4)cc3)CC2)cc1 — within 1.5-fold, 1030 nM
- COc1ccccc1Cc1nc2ccccc2nc1SCC(=O)Nc1cccc(C(F)(F)F)c1 — within 1.5-fold, 499 nM
- Cc1ccc2nc(N(CCCn3ccnc3)C(=O)C=Cc3cccs3)sc2c1 — 1.9-fold higher, 1390 nM
- CC(=O)N(C)c1cccc(CNc2cc(C)nc(Nc3ccc(C)cc3)n2)c1 — within 1.5-fold, 996 nM
- CC(=O)Nc1ccc2[nH]cc(C3CCN(CC4CCN(C(=O)/C=C/c5ccc(Cl)c(Cl)c5)CC4)CC3)c2n1 — 4.5-fold lower, 161 nM
- CCCN1CCN(Cc2ccc(C(=O)Nc3ccc(Cl)cc3)cc2)CC1 — 15-fold lower, 48.5 nM
- O=C(c1ccccc1)C1CC1CN1CC=C(c2c[nH]c3ccccc23)CC1 (stereo not drawn) — within 1.5-fold, 525 nM
- CCC(=O)c1c(C)n(-c2ncnc3c2nc(C)n3-c2ccc(C)cc2C)c2ccccc12 — within 1.5-fold, 645 nM
- Cc1ccccc1Nc1nc(NCc2ccccc2)nc2ccccc12 — within 1.5-fold, 1020 nM
